Assay results as given in ChEMBL document CHEMBL3885861, “Open TG-GATES”.

Species: Rattus norvegicus
Assay: Open TG-GATES - Regimen: Daily Repeat
Format: toxicity, organism-based, Sprague-Dawley
Design: regimen Daily Repeat, gender Male, age 6 weeks
Conditions: in vivo, po, route gavage; for APTT / Bas / Eos / Fbg / Hb / Ht / Lym / MCH / MCHC / MCV / Mono / Neu / PT / Plat / RBC / Ret / WBC: tissue Blood; for KIDNEY_L / KIDNEY_R / KIDNEY_TOTAL: tissue Kidney; for LIVER: tissue Liver; for A/G / ALP / ALT / AST / BUN / CRE / Ca / Cl / DBIL / GLC / IP / K / LDH / Na / PL / RALB / TBIL / TC / TG / TP / gamma-GTP: tissue Plasma
[1] = 0 mg/kg, 72 h, dose level Control, time 3 day
[2] = 0 mg/kg, […], dose level Control, time 7 day
[3] = 0 mg/kg, […], dose level Control, time 14 day
[4] = 0 mg/kg, […], dose level Control, time 28 day
[5] = 40 mg/kg, 72 h, dose level Low, time 3 day
[6] = 40 mg/kg, […], dose level Low, time 7 day
[7] = 40 mg/kg, […], dose level Low, time 14 day
[8] = 40 mg/kg, […], dose level Low, time 28 day

## COc1ccc(Cc2nccc3cc(OC)c(OC)cc23)cc1OC [PAPAVERINE]
[1]
  TERMINAL_BW: 240.5 g
  APTT: 21.1 s
  Bas: 0%
  Eos: 1%
  Fbg: 326.8 mg/dL
  Hb: 13.5 g/dL
  Ht: 40.7%
  Lym: 81.2%
  MCH: 21 pg
  MCHC: 33.4%
  MCV: 63 fL
  Mono: 2.2%
  Neu: 14.4%
  PT: 15.8 s
  Plat: 114.4 x10_4/uL
  RBC: 645.6 x10_4/ul
  Ret: 6.6%
  WBC: 105.4 x10_2/uL
  KIDNEY_L: 1 g
  KIDNEY_R: 1 g
  KIDNEY_TOTAL: 2 g
  LIVER: 11.4 g
  A/G: 1.2
  ALP: 1572.8 IU/L
  ALT: 41.4 IU/L
  AST: 70.2 IU/L
  BUN: 16 mg/dL
  CRE: 0.2 mg/dL
  Ca: 11 mg/dL
  Cl: 108.2 meq/L
  DBIL: 0 mg/dL
  GLC: 202.2 mg/dL
  IP: 7.2 mg/dL
  K: 4.2 meq/L
  LDH: 171.6 IU/L
  Na: 142.6 meq/L
  PL: 136.4 mg/dL
  RALB: 3 g/dL
  TBIL: 0.004 mg/dL
  TC: 72 mg/dL
  TG: 116 mg/dL
  TP: 5.5 g/dL
  gamma-GTP: 1.2 IU/L
[2]
  TERMINAL_BW: 267.4 g
  APTT: 23.2 s
  Bas: 0%
  Eos: 0.8%
  Fbg: 299 mg/dL
  Hb: 13.7 g/dL
  Ht: 40.3%
  Lym: 80%
  MCH: 21 pg
  MCHC: 34.1%
  MCV: 61.6 fL
  Mono: 2.8%
  Neu: 14.8%
  PT: 15.7 s
  Plat: 111.7 x10_4/uL
  RBC: 654 x10_4/ul
  Ret: 5.6%
  WBC: 125.6 x10_2/uL
  KIDNEY_L: 1.1 g
  KIDNEY_R: 1.1 g
  KIDNEY_TOTAL: 2.2 g
  LIVER: 12.1 g
  A/G: 1.2
  ALP: 1358 IU/L
  ALT: 47 IU/L
  AST: 82.2 IU/L
  BUN: 19.4 mg/dL
  CRE: 0.2 mg/dL
  Ca: 10.3 mg/dL
  Cl: 107.2 meq/L
  DBIL: 0 mg/dL
  GLC: 203.2 mg/dL
  IP: 6.7 mg/dL
  K: 4.4 meq/L
  LDH: 248.2 IU/L
  Na: 140.4 meq/L
  PL: 148.8 mg/dL
  RALB: 3 g/dL
  TBIL: 0 mg/dL
  TC: 75 mg/dL
  TG: 101.6 mg/dL
  TP: 5.5 g/dL
  gamma-GTP: 2 IU/L
[3]
  TERMINAL_BW: 326.9 g
  APTT: 22.8 s
  Bas: 0%
  Eos: 1%
  Fbg: 316.8 mg/dL
  Hb: 14.6 g/dL
  Ht: 42.7%
  Lym: 82%
  MCH: 20.7 pg
  MCHC: 34.1%
  MCV: 60.5 fL
  Mono: 2.2%
  Neu: 13.2%
  PT: 15.5 s
  Plat: 107 x10_4/uL
  RBC: 707 x10_4/ul
  Ret: 5%
  WBC: 120 x10_2/uL
  KIDNEY_L: 1.2 g
  KIDNEY_R: 1.3 g
  KIDNEY_TOTAL: 2.5 g
  LIVER: 14.2 g
  A/G: 1.1
  ALP: 1381.4 IU/L
  ALT: 42.2 IU/L
  AST: 67 IU/L
  BUN: 17.6 mg/dL
  CRE: 0.2 mg/dL
  Ca: 10.5 mg/dL
  Cl: 106.6 meq/L
  DBIL: 0 mg/dL
  GLC: 199.6 mg/dL
  IP: 6.7 mg/dL
  K: 4.4 meq/L
  LDH: 164.6 IU/L
  Na: 142.8 meq/L
  PL: 148.4 mg/dL
  RALB: 3 g/dL
  TBIL: 0.016 mg/dL
  TC: 78.4 mg/dL
  TG: 119.2 mg/dL
  TP: 5.7 g/dL
  gamma-GTP: 2.4 IU/L
[4]
  TERMINAL_BW: 413.6 g
  APTT: 24.6 s
  Bas: 0%
  Eos: 1.6%
  Fbg: 315.8 mg/dL
  Hb: 14.5 g/dL
  Ht: 43.8%
  Lym: 77.8%
  MCH: 18.7 pg
  MCHC: 33%
  MCV: 56.6 fL
  Mono: 2%
  Neu: 17.8%
  PT: 16 s
  Plat: 101.3 x10_4/uL
  RBC: 775 x10_4/ul
  Ret: 3%
  WBC: 123.2 x10_2/uL
  KIDNEY_L: 1.4 g
  KIDNEY_R: 1.5 g
  KIDNEY_TOTAL: 3 g
  LIVER: 16.8 g
  A/G: 1.1
  ALP: 1231 IU/L
  ALT: 44.4 IU/L
  AST: 68.2 IU/L
  BUN: 20 mg/dL
  CRE: 0.2 mg/dL
  Ca: 10.2 mg/dL
  Cl: 105 meq/L
  DBIL: 0 mg/dL
  GLC: 211.4 mg/dL
  IP: 6.2 mg/dL
  K: 4.1 meq/L
  LDH: 160.4 IU/L
  Na: 141.4 meq/L
  PL: 147.4 mg/dL
  RALB: 3.1 g/dL
  TBIL: 0.008 mg/dL
  TC: 73.6 mg/dL
  TG: 132.6 mg/dL
  TP: 5.8 g/dL
  gamma-GTP: 3.2 IU/L
[5]
  TERMINAL_BW: 246.9 g
  APTT: 21.6 s
  Bas: 0%
  Eos: 0.6%
  Fbg: 325.8 mg/dL
  Hb: 13.1 g/dL
  Ht: 39.6%
  Lym: 77.6%
  MCH: 21.1 pg
  MCHC: 33.2%
  MCV: 63.6 fL
  Mono: 2.8%
  Neu: 18%
  PT: 15.5 s
  Plat: 124.7 x10_4/uL
  RBC: 624.6 x10_4/ul
  Ret: 6.8%
  WBC: 102.4 x10_2/uL
  KIDNEY_L: 1 g
  KIDNEY_R: 1.1 g
  KIDNEY_TOTAL: 2.1 g
  LIVER: 11.6 g
  A/G: 1.2
  ALP: 1776.4 IU/L
  ALT: 44.2 IU/L
  AST: 73 IU/L
  BUN: 17 mg/dL
  CRE: 0.1 mg/dL
  Ca: 10.9 mg/dL
  Cl: 107.6 meq/L
  DBIL: 0 mg/dL
  GLC: 185.4 mg/dL
  IP: 7.5 mg/dL
  K: 4.5 meq/L
  LDH: 184 IU/L
  Na: 142.2 meq/L
  PL: 153.4 mg/dL
  RALB: 3 g/dL
  TBIL: 0.008 mg/dL
  TC: 77.8 mg/dL
  TG: 126 mg/dL
  TP: 5.6 g/dL
  gamma-GTP: 1.4 IU/L
[6]
  TERMINAL_BW: 281.8 g
  APTT: 21.6 s
  Bas: 0%
  Eos: 1%
  Fbg: 317.8 mg/dL
  Hb: 13.1 g/dL
  Ht: 38.8%
  Lym: 80.2%
  MCH: 20.8 pg
  MCHC: 33.7%
  MCV: 61.8 fL
  Mono: 2.2%
  Neu: 15.8%
  PT: 15.4 s
  Plat: 123 x10_4/uL
  RBC: 628 x10_4/ul
  Ret: 6.3%
  WBC: 124.1 x10_2/uL
  KIDNEY_L: 1.2 g
  KIDNEY_R: 1.2 g
  KIDNEY_TOTAL: 2.4 g
  LIVER: 13.2 g
  A/G: 1.2
  ALP: 1841.6 IU/L
  ALT: 40.6 IU/L
  AST: 67.2 IU/L
  BUN: 19.8 mg/dL
  CRE: 0.1 mg/dL
  Ca: 10.8 mg/dL
  Cl: 106 meq/L
  DBIL: 0 mg/dL
  GLC: 189.6 mg/dL
  IP: 6.8 mg/dL
  K: 4.5 meq/L
  LDH: 157 IU/L
  Na: 140.8 meq/L
  PL: 155.6 mg/dL
  RALB: 3 g/dL
  TBIL: 0.002 mg/dL
  TC: 76.4 mg/dL
  TG: 132.6 mg/dL
  TP: 5.5 g/dL
  gamma-GTP: 2.6 IU/L
[7]
  TERMINAL_BW: 316.9 g
  APTT: 23 s
  Bas: 0%
  Eos: 0.6%
  Fbg: 342.6 mg/dL
  Hb: 14.2 g/dL
  Ht: 41.8%
  Lym: 79%
  MCH: 19.7 pg
  MCHC: 34%
  MCV: 57.9 fL
  Mono: 2%
  Neu: 16.6%
  PT: 15.6 s
  Plat: 111.2 x10_4/uL
  RBC: 722.6 x10_4/ul
  Ret: 4.6%
  WBC: 128.3 x10_2/uL
  KIDNEY_L: 1.2 g
  KIDNEY_R: 1.2 g
  KIDNEY_TOTAL: 2.5 g
  LIVER: 14.1 g
  A/G: 1.1
  ALP: 1354 IU/L
  ALT: 40.6 IU/L
  AST: 67.4 IU/L
  BUN: 20.2 mg/dL
  CRE: 0.2 mg/dL
  Ca: 10.2 mg/dL
  Cl: 106.4 meq/L
  DBIL: 0 mg/dL
  GLC: 193.4 mg/dL
  IP: 6.9 mg/dL
  K: 4.2 meq/L
  LDH: 151.6 IU/L
  Na: 143 meq/L
  PL: 139.2 mg/dL
  RALB: 2.9 g/dL
  TBIL: 0.014 mg/dL
  TC: 64.2 mg/dL
  TG: 168 mg/dL
  TP: 5.7 g/dL
  gamma-GTP: 2 IU/L
[8]
  TERMINAL_BW: 422.2 g
  APTT: 25.2 s
  Bas: 0%
  Eos: 1%
  Fbg: 319 mg/dL
  Hb: 14.5 g/dL
  Ht: 43.8%
  Lym: 80%
  MCH: 19.1 pg
  MCHC: 33.1%
  MCV: 57.7 fL
  Mono: 1.8%
  Neu: 15.8%
  PT: 15.8 s
  Plat: 105.3 x10_4/uL
  RBC: 760.4 x10_4/ul
  Ret: 3.1%
  WBC: 151.9 x10_2/uL
  KIDNEY_L: 1.4 g
  KIDNEY_R: 1.5 g
  KIDNEY_TOTAL: 2.9 g
  LIVER: 17.3 g
  A/G: 1.1
  ALP: 1003.2 IU/L
  ALT: 36.4 IU/L
  AST: 62.2 IU/L
  BUN: 20 mg/dL
  CRE: 0.2 mg/dL
  Ca: 10.2 mg/dL
  Cl: 106 meq/L
  DBIL: 0 mg/dL
  GLC: 196 mg/dL
  IP: 6 mg/dL
  K: 4.1 meq/L
  LDH: 141.6 IU/L
  Na: 141.8 meq/L
  PL: 142.4 mg/dL
  RALB: 3.2 g/dL
  TBIL: 0.008 mg/dL
  TC: 68.6 mg/dL
  TG: 152.4 mg/dL
  TP: 6 g/dL
  gamma-GTP: 2.6 IU/L
